Test: Free radical-scavenging/antioxidant assay (DPPH)
Type: biochemical
Conditions: 50 μM DPPH in 80% methanol, absorbance at 520 nm, 24 h time point (steady state); read-out: EC50 (concentration at which a compound reduces by 50% the peak absorbance of DPPH at 520 nm)
Procedure: Nitrone compounds of the present invention were tested for their free-radical scavenging/antioxidant activity in an in vitro assay that is accepted by those skilled in the art as a model for conditions involving the generation of free radicals. The assay is based on a reaction between a free-radical donor, 2,2-diphenyl-1-picrylhydrazyl (DPPH), and a radical scavenger/antioxidant to be tested for free-radical scavenging activity. Upon donation of the free-radical electron to the purported radical scavenger, the peak visible absorbance of DPPH (515-520 nm) decreases so that optical density readings at this part of the visual spectrum reflect the progression of the following reaction: DPPH∩+AH→DPPH-H+A∩ where AH is a hypothetical radical scavenger/antioxidant. The assay is based on a protocol originally detailed in Brand-Williams, W. et al., 1995, Use of a Free Radical Method to Evaluate Antioxidant Activity, Lebensm. Wiss. Technol., 28:25-30, with further modifications described in L. R. Fukumoto and G. Mazza, 2000, Assessing Antioxidant and Prooxidant Activities of Phenolic Compounds, J. Agric. Food Chem., 48:3597-3604.
The antioxidant assay was performed using Perkin-Elmer 96-well, clear-bottom, black-wall plates (ordered from E & K Scientific Products) and a Tecan Safire absorbance plate reader. The positive controls were Trolox (6-hydroxy-2,5,7,8-tetramethylchromane-2-carboxylic acid, Sigma-Aldrich), BHA (2(3)-tert-butylhydroquinone monomethyl ether, Sigma-Aldrich), PBN (C-(phenyl)-N-(tert-butyl)nitrone, Sigma-Aldrich) and S-PBN (C-(2-sulfophenyl)-N-(tert-butyl)nitrone, sodium salt, prepared according to E. G. Janzen and R. V. Shetty, 1979, Tetrahedron Lett., 35: 3229-32), and the negative control (i.e., vehicle) was DMSO. In brief, 2 μL of 100×DMSO stock of the desired final concentration of each control or nitrone compound to be tested in the same batch was added to a separate well. To each well was then added 198 μL of a freshly made 50 μM DPPH (Sigma-Aldrich) solution in 80% methanol using a multi-channel pipette. The absorbance was immediately read on the plate reader at 520 nm and thereafter read periodically to assess kinetics until all reactions reached completion (i.e., steady state). Since the steady-state point was 24 h, the assay results are shown from the 24 h time point. The absorbance at 520 nm (OD) was plotted versus the concentrations of the controls and nitrone compounds to assess dose-response and interpolate the EC50 values of the controls and test compounds.

EC50 [µM]	Molecule
< 10	[O-]/[N+](=C\c1ccccc1N1CCN(c2ccc(C(F)(F)F)cn2)CC1)Cc1ccccc1 [Example 25, N-Benzyl-C-{2-[4-(5-(trifluoromethyl)pyridin-2-yl)piperazin-1-yl]phenyl}nitrone]
> 1000	[O-]/[N+](=C\c1ccccc1Sc1ccc(Cl)cc1)C1CCCCC1 [Example 27, N-Cyclohexyl-C-[2-(4-chlorophenylthio)phenyl]nitrone]
100 to 500	[O-]/[N+](=C\c1ccccc1Sc1ccc(Cl)cc1)Cc1ccccc1 [Example 28, N-Benzyl-C-[2-(4-chlorophenylthio)phenyl]nitrone]
> 1000	O=[N+]([O-])c1ccc(SC2CCCC2)c(/C=[N+](\[O-])C2CCCCC2)c1 [Example 30, N-Cyclohexyl-C-[2-(cyclopentylthio)-5-nitrophenyl]nitrone]
500 to 1000	O=[N+]([O-])c1ccc(SC2CCCC2)c(/C=[N+](\[O-])Cc2ccccc2)c1 [Example 31, N-Benzyl-C-[2-(cyclopentylthio)-5-nitrophenyl]nitrone]
> 1000	CSc1ccc(/C=[N+](\[O-])C(C)(C)C)c(SC)c1 [Example 32, N-(tert-Butyl)-C-[2,4-bis(methylthio)phenyl]nitrone]
> 1000	CCSc1ccccc1/C=[N+](\[O-])C(C)(C)C [Example 33, N-(tert-Butyl)-C-[2-(ethylthio)phenyl]nitrone]
> 1000	CC(C)Sc1ccccc1/C=[N+](\[O-])C(C)(C)C [Example 34, N-(tert-Butyl)-C-[2-(isopropylthio)phenyl]nitrone]
> 1000	CSc1cc(C(F)(F)F)ccc1/C=[N+](\[O-])C(C)(C)C [Example 35, N-(tert-Butyl)-C-[2-(methylthio)-4-(trifluoromethyl)phenyl]nitrone]
100 to 500	CC(C)(C)/[N+]([O-])=C/c1cc([N+](=O)[O-])ccc1Sc1ccccn1 [Example 36, N-(tert-Butyl)-C-[5-nitro-2-(pyridin-2-ylthio)phenyl]nitrone]
10 to 100	O=[N+]([O-])c1ccc(Sc2ccccn2)c(/C=[N+](\[O-])C2CCCCC2)c1 [Example 37, N-Cyclohexyl-C-[5-nitro-2-(pyridin-2-ylthio)phenyl]nitrone]
> 1000	COC(=O)c1[nH]c2ccccc2c1/C=[N+](\[O-])C(C)(C)C [Example 38, N-(tert-Butyl)-C-[2-(methoxycarbonyl)-1H-indol-3-yl]nitrone]
> 1000	COC(=O)c1[nH]c2ccccc2c1/C=[N+](\[O-])C1CCCCC1 [Example 39, N-Cyclohexyl-C-[2-(methoxycarbonyl)-1H-indol-3-yl]nitrone]
> 1000	COC(=O)c1[nH]c2ccccc2c1/C=[N+](\[O-])Cc1ccccc1 [Example 40, N-Benzyl-C-[2-(methoxycarbonyl)-1H-indol-3-yl]nitrone]
10 to 100	CC(C)(C)/[N+]([O-])=C/c1sccc1C(=O)O [Example 41, N-(tert-Butyl)-C-(3-carboxythiophen-2-yl)nitrone]
100 to 500	O=C(O)c1ccsc1/C=[N+](\[O-])C1CCCCC1 [Example 42, N-Cyclohexyl-C-(3-carboxythiophen-2-yl]nitrone]
> 1000	Cc1ccc(Sc2ncccc2/C=[N+](\[O-])C(C)(C)C)cc1 [Example 43, N-(tert-Butyl)-C-[2-(4-methylphenylthio)pyridin-3-yl]nitrone]
> 1000	CC(C)(C)/[N+]([O-])=C/c1cccnc1N1CCOCC1 [Example 46, N-(tert-Butyl)-C-[2-(1-morpholino)pyridin-3-yl]nitrone]
> 1000	[O-]/[N+](=C\c1cccnc1N1CCOCC1)C1CCCCC1 [Example 47, N-Cyclohexyl-C-[2-(1-morpholino)pyridin-3-yl]nitrone]
> 1000	[O-]/[N+](=C\c1cccnc1N1CCOCC1)Cc1ccccc1 [Example 48, N-Benzyl-C-[2-(1-morpholino)pyridin-3-yl]nitrone]
500 to 1000	CSc1nc2ccccc2cc1/C=[N+](\[O-])C(C)(C)C [Example 49, N-(tert-Butyl)-C-[2-(methylthio)quinolin-3-yl]nitrone]
> 1000	CC(C)(C)C(=O)Nc1cccc(/C=[N+](\[O-])C(C)(C)C)n1 [Example 51, N-(tert-Butyl)-C-[6-(2,2-dimethylpropanamido)pyridin-2-yl]nitrone]

Further lines, the molecule ahead of its results:

Molecule	EC50 [µM]
2(3)-tert-butylhydroquinone monomethyl ether [BHA, reference compound]	< 10
COC(=O)c1ccccc1/C=[N+](\[O-])C(C)(C)C [Example 1, N-(tert-Butyl)-C-[2-(methoxycarbonyl)phenyl]nitrone]	500 to 1000
COC(=O)c1ccccc1/C=[N+](\[O-])Cc1ccccc1 [Example 3, N-Benzyl-C-[2-(methoxycarbonyl)phenyl]nitrone]	500 to 1000
COC(=O)c1c(/C=[N+](\[O-])C(C)(C)C)cc(OC)cc1OC [Example 4, N-(tert-Butyl)-C-[2-(methoxycarbonyl)-3,5-dimethoxyphenyl]nitrone]	100 to 500
COC(=O)c1c(/C=[N+](\[O-])C2CCCCC2)cc(OC)cc1OC [Example 5, N-Cyclohexyl-C-[2-(methoxycarbonyl)-3,5-dimethoxyphenyl]nitrone]	100 to 500
COC(=O)c1c(/C=[N+](\[O-])Cc2ccccc2)cc(OC)cc1OC [Example 6, N-Benzyl-C-[2-(methoxycarbonyl)-3,5-dimethoxyphenyl]nitrone]	100 to 500
CC(C)(C)/[N+]([O-])=C/c1ccccc1C(=O)O [Example 7, N-(tert-Butyl)-C-(2-carboxyphenyl)nitrone]	100 to 500
O=C(O)c1ccccc1/C=[N+](\[O-])C1CCCCC1 [Example 8, N-Cyclohexyl-C-(2-carboxyphenyl)nitrone]	10 to 100
O=C(O)c1ccccc1/C=[N+](\[O-])Cc1ccccc1 [Example 9, N-Benzyl-C-(2-carboxyphenyl)nitrone]	10 to 100
COc1cc(/C=[N+](\[O-])C(C)(C)C)c(C(=O)O)c(OC)c1 [Example 10, N-(tert-Butyl)-C-(2-carboxy-3,5-dimethoxyphenyl)nitrone]	500 to 1000
COc1cc(/C=[N+](\[O-])C2CCCCC2)c(C(=O)O)c(OC)c1 [Example 11, N-Cyclohexyl-C-(2-carboxy-3,5-dimethoxyphenyl)nitrone]	10 to 100
COc1cc(/C=[N+](\[O-])Cc2ccccc2)c(C(=O)O)c(OC)c1 [Example 12, N-Benzyl-C-(2-carboxy-3,5-dimethoxyphenyl)nitrone]	10 to 100
CC(C)(C)/[N+]([O-])=C/c1ccccc1-n1ccnc1 [Example 14, N-(tert-Butyl)-C-[2-(imidazol-1-yl)phenyl]nitrone]	> 1000
[O-]/[N+](=C\c1ccccc1-n1ccnc1)C1CCCCC1 [Example 15, N-Cyclohexyl-C-[2-(imidazol-1-yl)phenyl]nitrone]	> 1000
[O-]/[N+](=C\c1ccccc1-n1ccnc1)Cc1ccccc1 [Example 16, N-Benzyl-C-[2-(imidazol-1-yl)phenyl]nitrone]	> 1000
CC(C)(C)/[N+]([O-])=C/c1ccccc1-n1cccn1 [Example 17, N-(tert-Butyl)-C-[2-(pyrazol-1-yl)phenyl]nitrone]	> 1000
[O-]/[N+](=C\c1ccccc1-n1cccn1)C1CCCCC1 [Example 18, N-Cyclohexyl-C-[2-(pyrazol-1-yl)phenyl]nitrone]	> 1000
[O-]/[N+](=C\c1ccccc1-n1cccn1)Cc1ccccc1 [Example 19, N-Benzyl-C-[2-(pyrazol-1-yl)phenyl]nitrone]	> 1000
CC(C)(C)/[N+]([O-])=C/c1ccccc1N1CCOCC1 [Example 20, N-(tert-Butyl)-C-[2-(1-morpholino)phenyl]nitrone]	100 to 500
[O-]/[N+](=C\c1ccccc1N1CCOCC1)C1CCCCC1 [Example 21, N-Cyclohexyl-C-[2-(1-morpholino)phenyl]nitrone]	100 to 500
[O-]/[N+](=C\c1ccccc1N1CCOCC1)Cc1ccccc1 [Example 22, N-Benzyl-C-[2-(1-morpholino)phenyl]nitrone]	> 1000
CC(C)(C)/[N+]([O-])=C/c1ccccc1N1CCN(c2ccc(C(F)(F)F)cn2)CC1 [Example 23, N-(tert-Butyl)-C-{2-[4-(5-(trifluoromethyl)pyridin-2-yl)piperazin-1-yl]phenyl}nitrone]	100 to 500
[O-]/[N+](=C\c1ccccc1N1CCN(c2ccc(C(F)(F)F)cn2)CC1)C1CCCCC1 [Example 24, N-Cyclohexyl-C-{2-[4-(5-(trifluoromethyl)pyridin-2-yl)piperazin-1-yl]phenyl}nitrone]	10 to 100

Source: patent US20070275932A1, “Aryl, heteroaromatic and bicyclic aryl nitrone compounds, prodrugs and pharmaceutical compositions of the same to treat human disorders” (Renovis, Inc., priority 2003, published 2007)
